# Test results as given in publication PMC7069944, “Amino acid levels determine metabolism and CYP450 function of hepatocytes and hepatoma cell lines” (Nature Communications, 2020).
# “And” between values parts separate entries of the source, which are not always exact repeats. Equal values may be shown once.
# How the values were obtained:
# HepG2 = assay: Repeated-exposure DILI training compounds, resazurin conversion, HepG2; conditions: repeat exposure
# Experimental: (§1) To evaluate the ability to predict hepatotoxicity, we adapted the differentiation assays to a 384-well format. […] As a readout, we evaluated cell viability by resazurin conversion and correlated the results to therapeutic doses (Cmax values).
# (§2) PSCs were differentiated in a 384-well format. […] As a negative control, 41 wells were left untreated. HepG2 were seeded at 40,000 cells per well. […] Cells were fixed with 4% PFA. […] Drugs were administrated after 8 h of attachment.
# HLC = assay: Repeated-exposure DILI training compounds, resazurin conversion, HLC; conditions: repeat exposure
# Experimental: as §1, §2
# HC3X = assay: Repeated-exposure DILI training compounds, resazurin conversion, HC3X
# Experimental: as §1, §2
# HC6X = assay: Repeated-exposure DILI training compounds, resazurin conversion, HC6X; conditions: repeat exposure
# Experimental: as §1, §2
compound,measurement,setting,value
COc1ccccc1Oc1c(NS(=O)(=O)c2ccc(C(C)(C)C)cc2)nc(-c2ncccn2)nc1OCCO [bosentan],% resazurin conversion,"HepG2; HepG2 AAGLY D30, 3 uM",83.9% and 87.5% and 86.6% and 85% and 90.8% and 89.1%
same,% resazurin conversion,"HepG2; HepG2 AAGLY D30, 5 uM",103.5% and 109.8% and 105.4% and 106.1% and 101% and 103.7%
same,% resazurin conversion,"HepG2; HepG2 AAGLY D30, 10 uM",90.8% and 98.2% and 96.3% and 97.7% and 97.3% and 97.5%
same,% resazurin conversion,"HepG2; HepG2 AAGLY D30, 30 uM",90.6% and 101.6% and 98.2% and 101.9% and 99.2% and 99.7%
same,% resazurin conversion,"HepG2; HepG2 AAGLY D30, 50 uM",84.4% and 90.1% and 80.4% and 87% and 86.9% and 92.2%
same,% resazurin conversion,"HepG2; HepG2 AAGLY D30, 600 uM",8% and 8.7% and 8.4% and 8.6% and 8.3% and 9%
same,% resazurin conversion,"HepG2; HepG2 AAGLY D30, 1200 uM",7.9% and 8.6% and 8% and 8.4% and 8.7%
same,% resazurin conversion,"HepG2; HepG2 CTL D7, 3 uM",72.9% and 95.8% and 79% and 88.4% and 77.2% and 78.8%
same,% resazurin conversion,"HepG2; HepG2 CTL D7, 5 uM",73% and 91.1% and 80.4% and 81.6% and 71% and 76.1%
same,% resazurin conversion,"HepG2; HepG2 CTL D7, 10 uM",80.2% and 87.8% and 81.3% and 100.4% and 83.9% and 90.2%
same,% resazurin conversion,"HepG2; HepG2 CTL D7, 30 uM",88.1% and 98.7% and 86.3% and 105.4% and 85.7% and 92.4%
same,% resazurin conversion,"HepG2; HepG2 CTL D7, 50 uM",100.8% and 104.7% and 98% and 123.6% and 67.3% and 101.1%
same,% resazurin conversion,"HepG2; HepG2 CTL D7, 100 uM",111.8% and 105.3% and 106.2% and 109.9% and 117.5%
same,% resazurin conversion,"HepG2; HepG2 CTL D7, 300 uM",107% and 119.1% and 111.5% and 146.3% and 120.1% and 110.8%
same,% resazurin conversion,"HepG2; HepG2 CTL D7, 600 uM",50.2% and 44.9% and 48.2% and 53.5% and 46.5% and 47.5%
same,% resazurin conversion,"HepG2; HepG2 CTL D7, 1200 uM",40.4% and 38.1% and 40.3% and 39.7% and 40.2% and 39%
same,% resazurin conversion,"HLC; HLC AAGLY D40, 3 uM",109.3% and 112.7% and 130.6% and 92% and 117.8% and 119.8%
same,% resazurin conversion,"HLC; HLC AAGLY D40, 10 uM",148.2% and 164.2% and 142.5% and 106% and 129.2% and 90.2%
same,% resazurin conversion,"HLC; HLC AAGLY D40, 30 uM",132.6% and 125.2% and 98.6% and 133% and 124.8%
same,% resazurin conversion,"HLC; HLC AAGLY D40, 300 uM",153.6% and 174.4% and 181% and 131.1% and 171.9% and 113.3%
same,% resazurin conversion,"HLC; HLC LDM D40, 3 uM",65.2% and 80.9% and 104.5% and 116.7% and 90.6% and 90.5%
same,% resazurin conversion,"HLC; HLC LDM D40, 5 uM",79.3% and 100.8% and 63.5% and 57.3% and 83.2% and 66.4%
same,% resazurin conversion,"HLC; HLC LDM D40, 10 uM",54.2% and 93.9% and 81.1% and 77.7% and 59.3% and 81.3%
same,% resazurin conversion,"HLC; HLC LDM D40, 50 uM",60.7% and 70.7% and 67.1% and 86.7% and 80.2% and 104.9%
same,% resazurin conversion,"HLC; HLC LDM D40, 100 uM",75% and 93.6% and 100.7% and 102.7% and 92.9% and 94.1%
same,IC50/Cmax,HC3X; human,20.81
same,% resazurin conversion,"HC3X; repeat exposure, HC3X AAGLY D40, 600 uM",1159% and 1257% and 1241% and 1301% and 1247% and 1406%
same,% resazurin conversion,"HC6X; HC6X AAGLY D40, 3 uM",121.3% and 137.4% and 77.6% and 97.3% and 111.3% and 90.5%
same,% resazurin conversion,"HC6X; HC6X AAGLY D40, 5 uM",110% and 103.2% and 89.1% and 89.6% and 114.4% and 93.7%
same,% resazurin conversion,"HC6X; HC6X AAGLY D40, 10 uM",131.4% and 134.4% and 92.1% and 126.5% and 93.7% and 145.1%
same,% resazurin conversion,"HC6X; HC6X AAGLY D40, 50 uM",121.5% and 126.6% and 76.5% and 101.9% and 125.3% and 68.1%
same,% resazurin conversion,"HC6X; HC6X AAGLY D40, 300 uM",51.6% and 48.9% and 38.5% and 48% and 36.4% and 37.5%
same,% resazurin conversion,"HC6X; HC6X AAGLY D40, 600 uM",42.8% and 51.2% and 38.6% and 45.8% and 36.3% and 36.8%
same,% resazurin conversion,"HC6X; HC6X AAGLY D40, 1200 uM",43.6% and 36.9% and 34.8% and 34.9% and 34.2% and 34.3%
same,% resazurin conversion,"HC6X; HC6X AAGLY D40 Remove dox, 5 uM",141.3% and 131.9% and 106.3% and 141.8% and 135.5% and 84.1%
same,% resazurin conversion,"HC6X; HC6X AAGLY D40 Remove dox, 10 uM",112.1% and 102.7% and 152.9% and 116.3% and 149.9% and 95.7%
